Consider 1 compound from patent publication US20260240865A1, “HARNESSING IKZF:BETA-CATENIN COMPLEXES IN THE TREATMENT OF LYMPHOCYTE ASSOCIATED DISEASES OR CONDITIONS” (Yale University, priority 2022, published 2026).

“Also recorded” adds a separate entry of the source.

For data set [1], the system named is β-catenin. Kind of data set: Western blot of colonies from MDS-derived CD34+ GFP+ progenitor cells. It is filed as cell-based, human. As to conditions: large colonies after 12 days. On the procedure:
(§1) Cells were washed twice with ice-cold PBS and were lysed in CelLytic buffer (Sigma-Aldrich) supplemented with 1% protease inhibitor cocktail (Roche Diagnostics), 1% phosphatase inhibitor cocktail (EMD Millipore) and 1 mM PMSF (CST) on ice. 10-20 μg of cell lysates were separated on precast gels (Bio-Rad) and transferred on nitrocellulose membranes (Bio-Rad). After blocking for an hour in TBS-T with 2% BSA, membranes were probed with the appropriate primary antibodies listed in Table 6. Membranes were incubated with alkaline-phosphatase conjugated secondary antibodies (Invitrogen) and analyzed with Chemi Doc™ MP Imaging System (Bio-Rad). For fractionation experiment Nuclear and Cytoplasmic Extraction Reagent (Thermo Scientific) was used according to manufacturer's instructions.
For colony forming assays, 10,000 mouse BCR-ABL1 or NRAS^G12D were grown on MethoCult medium (M3231 or M3630 (with IL-7) respectively, StemCell Technologies) in 3-cm diameter dishes with an extra dish filled with water to prevent evaporation. […] For all colony forming experiments, colonies were imaged and counted using GelCount (Oxford Optronix) and 7-14 days after plating.
Non-targeted and targeted CD34^+ GFP^+ cells were stimulated in the presence of human cytokines and colony forming assays were performed. Large colonies were analyzed by Western blot after 12 days.
For orientation: A western blot detects proteins with antibodies after separation by electrophoresis.

In data set [2] the test system is refractory B-ALL PDX (LAX2). Kind of data set: In vivo treatment of NSG mice bearing refractory B-ALL patient-derived xenografts. On the procedure:
Patient derived BCR-ABL1 ALL were labeled with firefly luciferase and selected by 25 μg ml^−1 blasticidin. 1 million PDX cells pre-treated with LY2090314 (10 μg ml^−1) or vehicle control for four hours. Cells were washed twice and then injected via the tail vein into sublethally irradiated (190 cGy) NSG mice (8-12 week-old, female). LY2090314 or vehicle control (dissolved in 5% DMSO, 45% PEG300 and PBS) were administered intraperitoneally at dose of 12.5 mg kg^−1 body weight twice every day for 20 times. The in vivo expansion and leukemia burden were monitored by luciferase bioimaging (Lago X; Accela). Briefly, D-luciferin (Promega) was dissolved in PBS and injected intraperitoneally at a dose of 2.5 mg per mouse 15 min before measuring luminescent. All mice were anesthetized by 5% isoflurane and continued during detection of light emission with 2% isoflurane introduced through a nose cone. When the mice get the signs of leukemia (hunched back, weight loss and inability to move), they were euthanized. Bone marrow and spleen were collected and flow cytometry analysis was performed to check leukemia engraftment.
(§2) Data are shown as mean±s.d. unless stated. Statistical analysis was performed by GraphPad Prism 7 (GraphPad Software Inc.) using unpaired two-tailed t test or log-rank test as indicated in figure legends. Significance was considered at P<0.05. Kaplan-Meier survival analysis was used to estimate OS with GraphPad Prism 7. The investigators were not blinded to allocation during experiments and outcome assessment. Experiments were repeated to ensure reproducibility of the observations.
(In general: In xenograft studies the graft and the host belong to different species.)

The conditions of data set [3]: cited from earlier work.
The test system of data set [4] is B-lymphoid leukemia and lymphoma cells. Kind of data set: Cell viability assay (Cell Titer Glo 2.0) with GSK3β inhibitors. It is filed as cell-based, human. For orientation: ATP-based viability assays read luminescence as a measure of living cells.
The test system is the same in data set [5]. The description is as above. It is filed as cell-based, human. On the procedure: Forty thousand patient-derived pre-B ALL cells or twenty thousand leukemia/lymphoma cell lines or ten thousand colon/lung cancer cells were seed in a volume of 80 μl in complete growth medium on 96-well plate. GSK3β3 inhibitors were added at the indicated concentration in a total volume of 100 μl. After treatment for 3 days, Cell Titer Glo 2.0 assays (Promega) were performed according to the manufacturer's instructions. Relative viability was calculated by measuring the luminescence value and normalizing it to baseline values of untreated cells.
as §2
The source holds these as a separate data set.

Data set [6] deals with β-catenin and MYC protein levels in B-ALL cells. Kind of data set: Western blot of β-catenin and MYC after GSK3β inhibitor treatment. It is filed as cell-based, human. On the procedure:
as §1

In data set [7] the test system is autoreactive B-cells. Kind of data set: Genetic mouse models for SLE and RA treated with GSK3β inhibitor. As to conditions: 4 injections i.p., 20 mg/kg, once full-blown disease has developed. It is filed as in vivo. The source says:
β-catenin activation in mouse models for SLE. As mouse models for SLE, lupus-prone B6.Sle1.Yaa mice will be studied, to be crossed on the B6Mb1^+/Crex Ctnnb1^ex3fl/fl model for B-cell-specific accumulation of β-catenin (FIG. 25). B6.Sle1.Yaa mice only require one backcross then intercross for Sle1 homozygosity, a large locus on chromosome 1 that promotes lupus susceptibility. One caveat of the B6.Sle1.Yaa model is that these are male mice, by contrast to female-dominant lupus in patients, since disease penetrance requires a second copy of Tlr7 on the Y chromosome (the Yaa allele). The B6.Sle1.Yaa faithfully replicates these outcomes as observed in other lupus-prone strains, including female predominant strains such as NZB/WF1 and MRL/1pr, or single gene models.
β-catenin activation in mouse models for RA. For collagen-induced arthritis (CIA) as a model for RA, disease is modeled on a B6 background with the B6 Mbl^+/Cre×Ctnnb1^ex3fl/fl allele using chicken type II collagen as an immunogen. […] Both models of inflammatory synovitis have been established, CIA induced in DBA1 and B6. The colonies are readily available for analyzing outcomes in these animals, including detailed analysis of B- and T-cell responses, and degree of synovitis and joint damage. […]

`O=C1NC(=O)C(c2cnc3ccccn23)=C1c1cn2c3c(cc(F)cc13)CN(C(=O)N1CCCCC1)CC2` [LY2090314]: the “β-catenin accumulation in non-targeted control colonies” value in data set [1] was “induced accumulation of β-catenin in all 7 non-targeted control colonies”. In addition, the “leukemia burden (bioluminescence imaging)” value in data set [2] (NSG mice with refractory B-ALL PDX, intraperitoneal, single agent vs vehicle) is recorded as “substantially reduced leukemia burden”. Also, the overall survival result in data set [2] (NSG mice with refractory B-ALL PDX, intraperitoneal, P=6.5E-05, n=9) is reported as “significantly extended overall survival”. Further, the leukemia-initiation potential result in data set [2] (limiting doses (100-2,500 cells) of B-ALL PDX in transplant recipient mice) is recorded as “reduced the leukemia-initiation potential”. The “weight loss / dose-limiting toxicity” value in data set [2] (treated NSG mice) is on record as “did not show significant weight loss or other dose-limiting toxicity”. Moreover, the “adverse effects in clinical trials” value in data set [3] (Cmax micromolar) is given as “lymphopenia”. Besides, in data set [3] (Phase 1 and 2), the “Outcome: clinical responses” value is given as “No clinical responses”; the “Outcome: safety” value was “Phase 1 and 2, favorable safety”. Further, the “Outcome: MTD” value in data set [3] (i.v.) is listed as 80 mg. The “safety and tolerability / PK/PD profile in clinical trials” value in data set [3] (micromolar plasma concentrations (Cmax)) was “demonstrated safety and tolerability at micromolar plasma concentrations”. In addition, the “IC50 in epithelial and myeloid cancer cells relative to B-ALL” value in data set [4] (343 epithelial cancer cell lines (Prism Drug Repurposing Secondary Screen) vs B-ALL cell lines) is given as 236 fold. Further, the “IC50 in epithelial and myeloid cancer cells relative to B-cell lymphoma” value in data set [4] (343 epithelial cancer cell lines (Prism Drug Repurposing Secondary Screen) vs B-cell lymphoma cell lines) is 92 fold. In addition, the “responses in B-ALL PDX with vs without IKZF1-deletion” value in data set [5] (10 patient-derived xenografts, 5 with IKZF1-deletion) is recorded as “no significant differences”. In addition, the “drug-responses in a larger panel of cell lines and PDX” value in data set [5] (B-ALL, B-cell lymphoma, myeloid leukemia, colon, lung cancer, 0 up to 200 nM, 3 days) was “profound responses in B-ALL and B-cell lymphoma cells in the absence of significant effects on myeloid and epithelial tumor cells”. Further, the “selective cell death / drug response” value in data set [5] (B-lymphoid vs myeloid and epithelial cells (PDX2, BV173, LAX2 vs THP1, SW620, H82), 3 days) was “induced cell death at low nanomolar concentrations selectively in B-lymphoid but not myeloid and epithelial cells; also recorded: B-cell selective activity at low nanomolar concentrations”. The “responses in B-ALL PDX from chemotherapy-sensitive vs refractory/relapsed patients” value in data set [5] (FIG. 7D) is given as “did not affect responses”. Also, the “sensitivity of B-ALL cells with deletion of CTNNB1” value in data set [5] (human B-ALL (BV173) gCTNNB1 vs gNT clones, 3 days) was “near-complete resistance”. Further, the “β-catenin accumulation and MYC suppression” value in data set [6] (B-ALL (PDX2) cells, 16 hours, FIGS. 7A, 7C, 18C) is listed as “induced massive accumulation of β-catenin in parallel with acute suppression of MYC”. In data set [6] (BV173, 20 nM, 16 hours), the “MYC suppression in B-ALL cells with deletion of CTNNB1” value is listed as “prevented suppression of MYC”. Moreover, the “β-catenin accumulation and MYC suppression in B-cell vs colon and lung cell lines” value in data set [6] (pre-B cell and mature B-cell lines, colon and lung cancer cell lines, FIG. 28A) was “induced rapid accumulation of β-catenin protein and suppression of MYC in Ikaros-expressing B-cell lines but not colon and lung cell lines”. The “disease outcome in established SLE and RA” value in data set [7] is “induce disease remission”.
